PMC7802075 (ACS Infectious Diseases, 2020)
Counter-ions that a name gives are not always drawn. Like-named read-outs stand apart in the source and are kept apart here. Where a SMILES comes first, the peptide text is derived from it. The star is where a group is joined. Tfa = O=C(C(F)(F)F)*

Biological target: T1, LmjIPCS (inositol phosphorylceramide synthase from L. major) (Leishmania major, UniProt E9AFX2)
T1 sequence (E9AFX2 1-338): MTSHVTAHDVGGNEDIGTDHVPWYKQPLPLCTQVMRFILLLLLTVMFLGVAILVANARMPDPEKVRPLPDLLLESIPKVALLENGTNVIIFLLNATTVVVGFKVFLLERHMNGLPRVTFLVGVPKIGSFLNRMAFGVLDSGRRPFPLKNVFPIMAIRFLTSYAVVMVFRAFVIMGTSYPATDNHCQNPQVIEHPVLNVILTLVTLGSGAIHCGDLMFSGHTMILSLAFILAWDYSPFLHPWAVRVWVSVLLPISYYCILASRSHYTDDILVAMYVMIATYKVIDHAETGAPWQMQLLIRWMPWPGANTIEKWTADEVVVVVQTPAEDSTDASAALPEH
Experiment: biochemical
Format: biochemical
Design: inhibition: dose or concentration left out as unconfirmed
Settings: for inhibition: read-out: inhibition LmjIPCS; for inhibition at 20000 µM: read-out: 20mM inhibition LmjIPCS

[1] = NINDS set screen, single concentration printed as 20mM
[2] = screening of NINDS set, sheet Screen 1

SMILES	inhibition at 20000 µM [%]	further results
O=C(C1CCCCC1)N1CC(=O)N2CCc3ccccc3C2C1 (stereo not shown) [PRAZIQUANTEL]	–	inhibition: -3.78%
CC(=O)O[C@H]1C(=O)[C@@]2(C)[C@H]([C@H](OC(=O)c3ccccc3)[C@]3(O)C[C@H](OC(=O)[C@H](O)[C@@H](NC(=O)c4ccccc4)c4ccccc4)C(C)=C1C3(C)C)[C@]1(OC(C)=O)CO[C@@H]1C[C@@H]2O [PACLITAXEL]	–	inhibition: 0.0705%
COc1ccc2c3c1O[C@H]1C[C@@H](O)C=C[C@@]31CCN(C)C2 [GALANTHAMINE]	2.62	–
C=C[C@H]1C[N@@]2CC[C@H]1C[C@@H]2[C@@H](O)c1ccnc2ccc(OC)cc12 [QUINIDINE]	–	20mM inhibition LmjIPCS: 55%
Nc1ccc(C(=O)[O-])cc1.[K+] [POTASSIUM p-AMINOBENZOATE]	–	20mM inhibition LmjIPCS: 40%
CC[C@H](C)C(=O)O[C@H]1C[C@H](O)C=C2C=C[C@H](C)[C@H](CC[C@@H](O)C[C@@H](O)CC(=O)O)[C@H]21 [PRAVASTATIN]	–	inhibition: 28%
OCCOCCN1CCN(C(c2ccccc2)c2ccc(Cl)cc2)CC1 (stereo not shown) [HYDROXYZINE PAMOATE]	–	20mM inhibition LmjIPCS: 45%
CC(C)[C@H](NC(=O)[C@H](Cc1ccc(O)cc1)NC(=O)[C@@H](NC(=O)C(F)(F)F)C(C)C)C(=O)O [Tfa-VAL-TYR-VAL-OH] (Tfa-Val-Tyr-Val-OH)	7.54	–
O=C(Cn1ccnc1[N+](=O)[O-])NCCO [ETANIDAZOLE]	3.58	–
O=C(O)c1cn(C2CC2)c2cc(N3CCNCC3)c(F)cc2c1=O [CIPROFLOXACIN]	3	–
CC(=O)OCC(=O)[C@@]1(O)CC[C@H]2[C@@H]3CCC4=CC(=O)C=C[C@]4(C)[C@H]3[C@@H](O)C[C@@]21C [PREDNISOLONE ACETATE]	25	–
CN1CC(=O)NC1=N [CREATININE]	–	inhibition (NINDS set screen): 15%
CCOC(=O)[N-]c1cn(N2CCOCC2)n[o+]1 [MOLSIDOMINE]	-0.951	–
Cn1cnc2c1c(=O)[nH]c(=O)n2C [THEOBROMINE]	24	–
CC(=O)Oc1ccc(C(c2ccc(OC(C)=O)cc2)c2ccccn2)cc1 [BISACODYL]	–	20mM inhibition LmjIPCS: 48%
c1ccc2c(c1)CCCC2C1=NCCN1 (stereo not shown) [TETRAHYDROZOLINE]	8	–
O=C1CCc2cc(OCCCCc3nnnn3C3CCCCC3)ccc2N1 [CILOSTAZOL]	–	inhibition (NINDS set screen): 14%
Nc1ccncc1 [AMINOPYRIDINE]	–	20mM inhibition LmjIPCS: -4.7%
C[C@@H]1O[C@@H](O[C@H]2CC[C@]3(C=O)[C@H]4CC[C@]5(C)[C@@H](C6=CC(=O)OC6)CC[C@]5(O)[C@@H]4CC[C@]3(O)C2)[C@H](O)[C@H](O)[C@H]1O [CONVALLATOXIN]	16	–
Cc1ncc([N+](=O)[O-])n1CC(C)O (stereo not shown) [SECNIDAZOLE]	12	–
COc1c2ccoc2cc2oc(=O)ccc12 [BERGAPTEN]	–	inhibition: 17%
Cc1cccc(C)c1NC(=O)C1CCCCN1C (stereo not shown) [MEPIVACAINE]	–	20mM inhibition LmjIPCS: 55%
NC(Cc1ccc(Cl)cc1)C(=O)O (stereo not shown) [p-CHLOROPHENYLALANINE]	–	20mM inhibition LmjIPCS (single concentration 20mM as printed, screening of NINDS set, sheet Screen 1): 4%
NC(=O)c1ncn([C@@H]2O[C@H](CO)[C@@H](O)[C@H]2O)c1O [MIZORIBINE]	6.58	–
CO/N=C1\CN(c2nc3c(cc2F)c(=O)c(C(=O)O)cn3C2CC2)CC1CN (stereo not shown) [GEMIFLOXACIN]	25	–

SMILES	inhibition at 20000 µM [%]	further results
COc1ccccc1OCC(O)COC(N)=O (stereo not shown) [METHOCARBAMOL]	13	–
CN[C@@H](C)[C@H](O)c1ccccc1 [EPHEDRINE (1R,2S)]	–	20mM inhibition LmjIPCS: 8%
CC(=O)Nc1ccc(OC(=O)c2ccccc2O)cc1 [ACETAMINOSALOL]	–	inhibition (NINDS set screen): -0.337%
COc1ccc(C(=O)O[C@H]2CC[C@@]3(C)[C@@H]4CC[C@H]5[C@]6(O)C[C@H](O)[C@@]7(O)[C@@H](CN8C[C@@H](C)CC[C@H]8[C@@]7(C)O)[C@]6(O)C[C@@]53O[C@]24O)cc1OC [VERATRIDINE]	11	–
CC(=O)O[C@]1(C(C)=O)CC[C@H]2[C@@H]3C=C(C)C4=CC(=O)CC[C@]4(C)[C@H]3CC[C@@]21C [MEGESTROL ACETATE]	15	–
Cc1cc(NC(=O)C2=C(O)c3ccccc3S(=O)(=O)N2C)no1 [ISOXICAM]	-3	–
N#C[C@H](O[C@@H]1O[C@H](CO[C@@H]2O[C@H](CO)[C@@H](O)[C@H](O)[C@H]2O)[C@@H](O)[C@H](O)[C@H]1O)c1ccccc1 [AMYGDALIN]	-4	–
Cn1cnc([N+](=O)[O-])c1Sc1ncnc2nc[nH]c12 [AZATHIOPRINE]	–	20mM inhibition LmjIPCS: 39%
COC(=O)/C(=C1/OC(=O)C(c2ccccc2)=C1O)c1ccccc1 [VULPINIC ACID]	–	inhibition (NINDS set screen): 13%
CN1CCCC(n2nc(Cc3ccc(Cl)cc3)c3ccccc3c2=O)CC1 (stereo not shown) [AZELASTINE]	–	20mM inhibition LmjIPCS [1]: 56%
CC(=O)OCC(=O)[C@H]1CC[C@H]2[C@@H]3CCC4=CC(=O)CC[C@]4(C)[C@H]3CC[C@]12C [DESOXYCORTICOSTERONE ACETATE]	17	–
CC1=NS(=O)(=O)c2cc(Cl)ccc2N1 [DIAZOXIDE]	5	–
COc1c(N2CCNC(C)C2)c(F)cc2c(=O)c(C(=O)O)cn(C3CC3)c12 (stereo not shown) [GATIFLOXACIN]	–	inhibition [2]: 2.29%
O=C(O)c1cc(O)c2c(c1)C(=O)c1cc(O)cc(O)c1C2=O [EMODIC ACID]	–	inhibition (NINDS set screen): 14%
CN(C)CCc1c[nH]c2ccc(CS(=O)(=O)N3CCCC3)cc12 [ALMOTRIPTAN]	5	–
CC(C)[C@H](N)C(=O)N[C@@H](Cc1c[nH]c2ccccc12)C(=O)O [VALYLTRYPTOPHAN] (H-Val-Trp-OH)	–	inhibition [2]: 6%
Cc1ccc(-c2cc(C(F)(F)F)nn2-c2ccc(S(N)(=O)=O)cc2)cc1 [CELECOXIB]	–	20mM inhibition LmjIPCS: 51%
C[C@@H]1O[C@@H]1P(=O)(O)O [FOSFOMYCIN]	–	inhibition: 16%
C[C@](N)(Cc1ccc(O)c(O)c1)C(=O)O [METHYLDOPA]	–	inhibition [2]: 8%
CC(C)NNC(=O)c1ccncc1 [IPRONIAZID]	–	inhibition (NINDS set screen): 31%
O=C1C=C2C=C[C@@H]3C[C@@]2(O1)[C@H]1CCCCN31 [SECURININE]	11	–
O=C(/C=C/c1ccc(O)c(O)c1)OCCc1ccccc1 [PHENETHYL CAFFEATE (CAPE)]	–	20mM inhibition LmjIPCS: 39%
[H]/N=C(\N/C(=N/[H])Nc1ccc(Cl)cc1)NC(C)C [CHLOROGUANIDE]	–	inhibition (NINDS set screen): 28%
COc1ccc([C@@H]2Sc3ccccc3N(CCN(C)C)C(=O)[C@@H]2OC(C)=O)cc1 [DILTIAZEM]	–	inhibition: 14%
OCc1ccccc1O [SALICYL ALCOHOL]	–	inhibition (NINDS set screen): 23%

SMILES	inhibition at 20000 µM [%]	further results
C[C@]12C=CC(=O)C=C1CC[C@@H]1[C@@H]2[C@@H](O)C[C@@]2(C)[C@H]1CC[C@]2(O)C(=O)CO [PREDNISOLONE]	–	inhibition: 21%
N[C@@H]1C[C@H]1c1ccccc1 (racemic) [TRANYLCYPROMINE]	–	20mM inhibition LmjIPCS [1]: 49%
C[C@H](N)[C@H](O)c1ccc(O)c(O)c1 [LEVONORDEFRIN]	16	–
CC(C)C[C@H](CN)CC(=O)O [PREGABALIN]	12	–
CC1=C(CC(=O)O)c2cc(F)ccc2/C1=C\c1ccc([S+](C)[O-])cc1 (stereo not shown)	–	inhibition: 12%
CO[C@H]1/C=C/O[C@@]2(C)Oc3c(C)c(O)c4c(O)c(c5c(nc6cc(C)ccn65)c4c3C2=O)NC(=O)/C(C)=C\C=C\[C@H](C)[C@H](O)[C@@H](C)[C@@H](O)[C@@H](C)[C@H](OC(C)=O)[C@@H]1C [RIFAXIMIN]	6	–
c1ccc2c(c1)[nH]c1cnccc12 [NORHARMAN]	17	–
CC(=O)N[C@@H](CC(C)C)C(=O)O [ACETYL-L-LEUCINE]	8	–
CO[C@H]1C[C@H](O[C@@H]2/C(C)=C/C[C@@H]3C[C@@H](C[C@]4(CC[C@H](C)[C@@H](C5CCCCC5)O4)O3)OC(=O)[C@@H]3C=C(C)/C(=N/O)[C@H]4OC/C(=C\C=C\[C@@H]2C)[C@]43O)O[C@@H](C)[C@@H]1O [SELAMECTIN]	–	20mM inhibition LmjIPCS: 45%
Cc1[nH]ccc2c1[nH]c1cc(=O)ccc12 [HARMOL]	15	–
CC[C@@H](C(=O)O)[C@@H]1O[C@@H]([C@@H](C)[C@H](O)[C@H](C)C(=O)[C@H](CC)[C@H]2O[C@]3(C=C[C@@H](O)[C@]4(CC[C@@](C)([C@H]5CC[C@](O)(CC)[C@H](C)O5)O4)O3)[C@H](C)C[C@@H]2C)[C@@H](C)C[C@@H]1C [NARASIN]	-0.161	–
NC(=O)c1ccc(N)nc1 [6-AMINONICOTINAMIDE]	7.54	–
NCCCCCC(=O)O [6-AMINOCAPROIC ACID]	–	20mM inhibition LmjIPCS: 43%
CCCC(=O)O[C@]1(C(=O)CO)CC[C@H]2[C@@H]3CCC4=CC(=O)CC[C@]4(C)[C@H]3[C@@H](O)C[C@@]21C [HYDROCORTISONE BUTYRATE]	5.61	–
CCS(=O)(=O)CCn1c([N+](=O)[O-])cnc1C [TINIDAZOLE]	15	–
OCc1c[nH]c2ccccc12 [INDOLE-3-CARBINOL]	11	–
Cc1cnc(NC(=O)C2=C(O)c3ccccc3S(=O)(=O)N2C)s1 [MELOXICAM]	–	inhibition: 11%
NC(Cc1cc(I)c(Oc2cc(I)c(O)c(I)c2)c(I)c1)C(=O)O (stereo not shown) [THYROXINE]	12	–
C[C@H]1C(=O)O[C@@H]2CCN3CC=C(COC(=O)[C@](C)(O)[C@]1(C)O)[C@H]23 [MONOCROTALINE]	2	–
NC(CO)C(=O)NNCc1ccc(O)c(O)c1O (stereo not shown) [BENSERAZIDE]	–	20mM inhibition LmjIPCS: 43%
CC(=O)O[C@H](CC(=O)[O-])C[N+](C)(C)C [ACETYLCARNITINE]	-17	–
Cc1cc(CC(=O)O)n(C)c1C(=O)c1ccc(Cl)cc1 [ZOMEPIRAC]	10	–
CCCCC(=O)Oc1ccccc1C(=O)O [VALERYL SALYCILATE]	10	–
